Assay [1] deals with HeLa cells. Briefly: Cell growth inhibition assay, HeLa. To be noted: Table 2 comparison, growth up to 4 days. The assay is classed as cell-based, human. The source says:
(§1) Human epitheloid cervical carcinoma HeLa cells, human breast adenocarcinoma MCF7 and MDA-MB-231cells, human hepatocellular carcinoma HepG2 cells, human colon adenocarcinoma HT-29 cells, and human colorectal carcinoma HCT-116 cells were purchased from ATCC® and maintained in DMEM medium. Human prostate carcinoma PC-3 cells (purchased from ATCC®), human gastric carcinoma SNU-484 and SNU-601(obtained from Korean Cell Line Bank (KCLB)), human leukemia K-562 and HL-60 cells (purchased from ATCC®), immortalized human prostate epithelial 267B1cells, and immortalized human embryonic lung fibroblast MRC5CV1 cells were maintained in RPMI 1640 medium whereas immortalized retinal pigment epithelial hTERT RPE-1 cells (purchased from ATCC®) were maintained in DMEM/F12 medium. All cell lines were cultured in media supplemented with 10% fetal bovine serum, 100 U/ml penicillin, and […] streptomycin at 37°C in a 5% CO2 incubator.
(§2) Cells were seeded at the appropriate amount (1–2×10^3 cells) in triplicate in 96-well plates for 24 h and then treated with various concentrations of STK295900. Cell growth was determined by using EZ-CyTox cell viability assay kit (Daeil Lab. Service, Seoul, Korea). Ten microliters of WST solution were added to the treated cells at 24, 48, 72, and 96 h. Cells were further incubated at 37°C for 2 h and the absorbance was measured at 450 nm.

Assay [2] relates to cancer (HeLa, MCF7, HepG2, and HT-29) and non-cancerous cell lines (hTERT RPE-1, 267B1, and MRC5CV1). The experiment in a line: Cell growth inhibition assay, cancer and non-cancerous cell lines compared. In kind it is cell-based, human.
From the text: as §1, §2

In assay [3] the test system is HT-29 cells. Briefly: Cell growth inhibition assay, HT-29. To be noted: Table 2 comparison, HT-29, growth up to 4 days. The assay is classed as cell-based, human.
From the text: as §1, §2

In assay [4] the test system is MRC5CV1 cells. Briefly: Cell growth inhibition assay, MRC5CV1. In kind it is cell-based, human. As to conditions: Table 2 comparison, MRC5CV1, non-cancer, growth up to 4 days.
From the text: as §1, §2

Assay [5] deals with MCF7 cells. The experiment in a line: Cell growth inhibition assay, MCF7. In kind it is cell-based, human. As to conditions: Table 2 comparison, MCF7, growth up to 4 days.
From the text: as §1, §2

Assay [6] relates to 267B1 cells. Briefly: Cell growth inhibition assay, 267B1. To be noted: Table 2 comparison, 267B1, non-cancer, growth up to 4 days. The assay is classed as cell-based, human.
From the text: as §1, §2

The subject of assay [7] is HepG2 cells. Briefly: Cell growth inhibition assay, HepG2. To be noted: Table 2 comparison, HepG2, growth up to 4 days. The assay is classed as cell-based, human.
From the text: as §1, §2

In assay [8] the test system is HeLa cells. The experiment in a line: Antagonistic effect on Top poison-induced DNA damage (γ-H2A.X immunoblot). As to conditions: DMSO pretreated, 10 µM or 30 µM, 1 h. In kind it is cell-based, human. The protocol: (§3) Cells were lysed with cold RIPA buffer (50 mM Tris-HCl pH 8.0, 150 mM NaCl, 1% NP-40, 0.5% sodium deoxycholate, 0.1% SDS) containing freshly added protease inhibitor, phosphatase inhibitor (SIGMA), 1 mM DTT, and 1 mM Na3VO4 on ice for 1 h. Whole cell lysates were centrifuged at 15,000 rpm for 20 min and then the supernatant was transferred into a new tube. An appropriate amount of cell lysate was subjected to SDS-PAGE. Then the resolved proteins were transferred onto a PVDF membrane (Bio-Rad) for immunoblot analyses with specific antibodies. The proteins were detected using chemiluminescence solution (Thermo Scientific, Rockford, IL).
(§4) Supercoiled DNA relaxation assay for (A) topoisomerase 1 (Top 1) and (B) topoisomerase 2 (Top 2). Supercoiled pBR322 plasmid DNA was incubated at 37°C for 30 min with Top 1 enzyme (A) or Top 2α (B) in the presence of various concentrations of indicated compounds. DNA samples were separated by electrophoresis on a 1% agarose gel, stained with ethidium bromide, and visualized by UV light. (−), supercoiled DNA alone; oc, open circular; sc, supercoiled. […] HeLa cells were pretreated with 10 µM of STK295900 for 30 min and then incubated with the indicated concentrations of camptothecin for 1 h. Treated cells were lysed and subjected to immunoblot analyses with antibody against γ-H2A.X. β-actin was used as a loading control. […] HeLa cells were pretreated with STK295900 at 10, 20, 30, or 50 µM or ICRF-193 at 10 µM for 30 min. […] Treated cells were then lysed and subjected to immunoblot analyses with antibody against γ-H2A.X. β-actin was used as a loading control.
The lysates were subjected to immunoblot analyses with γ-H2A.X antibody.
A general note: In western blotting, separated proteins are transferred to a membrane and probed.

For assay [9], the system named is hTERT RPE-1 cells. The experiment in a line: Cell growth inhibition assay, hTERT RPE-1. In kind it is cell-based, human. As to conditions: Table 2 comparison, hTERT RPE-1, non-cancer, growth up to 4 days.
From the text: as §1, §2

Assay [10] has as its target T1, calf thymus topoisomerase 1 (Bos taurus, UniProt F1MN93).
T1 construct: purified calf thymus topoisomerase 1; purchased Takara Bio, Shiga, Japan; host or cells: calf thymus (tissue-purified)
T1 sequence (F1MN93 1-767): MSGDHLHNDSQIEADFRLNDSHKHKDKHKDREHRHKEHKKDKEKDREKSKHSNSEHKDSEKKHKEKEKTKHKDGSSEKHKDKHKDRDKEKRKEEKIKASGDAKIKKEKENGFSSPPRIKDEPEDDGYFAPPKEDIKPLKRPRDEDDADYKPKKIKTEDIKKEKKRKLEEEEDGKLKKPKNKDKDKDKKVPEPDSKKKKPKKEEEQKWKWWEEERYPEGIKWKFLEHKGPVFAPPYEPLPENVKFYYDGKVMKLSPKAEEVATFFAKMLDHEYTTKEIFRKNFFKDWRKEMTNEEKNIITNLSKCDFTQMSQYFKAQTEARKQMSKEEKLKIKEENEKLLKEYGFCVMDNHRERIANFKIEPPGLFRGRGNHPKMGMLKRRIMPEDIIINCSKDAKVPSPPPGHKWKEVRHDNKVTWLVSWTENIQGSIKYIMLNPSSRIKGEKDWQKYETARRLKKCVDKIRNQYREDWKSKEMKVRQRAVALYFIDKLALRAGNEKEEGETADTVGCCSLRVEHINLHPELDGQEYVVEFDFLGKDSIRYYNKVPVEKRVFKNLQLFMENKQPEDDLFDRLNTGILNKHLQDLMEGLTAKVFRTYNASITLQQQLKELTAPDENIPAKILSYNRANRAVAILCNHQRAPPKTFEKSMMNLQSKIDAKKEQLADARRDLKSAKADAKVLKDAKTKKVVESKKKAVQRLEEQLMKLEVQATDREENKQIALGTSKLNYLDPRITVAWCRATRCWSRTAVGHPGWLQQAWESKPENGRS
The experiment in a line: Supercoiled DNA relaxation assay for topoisomerase 1. In kind it is biochemical.

For assay [11], the system named is HeLa cells. Briefly: Immunoblot of cell cycle and DNA damage checkpoint proteins. In kind it is cell-based, human. As to conditions: 24 h, STK295900 1 or 5 µM, camptothecin 10 µM, etoposide 10 µM. The protocol:
as §3
(A) Flow cytometric analysis for cell cycle distribution. HeLa cells were treated with the indicated concentrations of STK295900 for 24 h. Treated cells were then stained with propidium iodide (PI) and processed for cell cycle analysis. The bar graph represents the mean percentage of each cell cycle phase ± SD from three independent experiments. * = p<0.05 versus the respective G1, S, or G2/M phase of DMSO-treated cells. (B) Mitotic index of STK295900. HeLa cells were treated with the indicated concentrations of STK295900 for 24 h. Cells were then stained with Hoechst 33342 and mitotic cells were counted. […] (C) Cell cycle related proteins expression. […] Treated cells were lysed and subjected to immunoblot analyses with antibodies against cyclin A, cyclin B1, phospho-Histone H3 (S10), and Histone H3. β-actin was used as a loading control.
(A) G2/M transition regulated proteins expression. […] GAPDH was used as a loading control. (B) DNA damage-checkpoint related proteins. […] Images were analyzed on a fluorescence microscope.

Assay [12] deals with human topoisomerase 2α (Homo sapiens, UniProt P11388). Briefly: Supercoiled DNA relaxation assay for topoisomerase 2α. In kind it is biochemical. To be noted: pBR322, 37°C, 30 min. The protocol: After incubation, the reaction was terminated by addition of 2 µl of 10% SDS. The reaction mixtures were treated with 50 µg/ml proteinase K for 30 min at 37°C and then DNA was extracted with CIA (chloroform:isoamyl alcohol, 24∶1). Samples were resolved by electrophoresis on a 1% agarose gel. After staining the electrophoresed gel with ethidium bromide, DNA bands were visualized by UV light and photographed on Gel Doc XR.
as §4

Where only a bound is given, the exact number is not on record here.

Chain of human topoisomerase 2α (P11388 whole entry): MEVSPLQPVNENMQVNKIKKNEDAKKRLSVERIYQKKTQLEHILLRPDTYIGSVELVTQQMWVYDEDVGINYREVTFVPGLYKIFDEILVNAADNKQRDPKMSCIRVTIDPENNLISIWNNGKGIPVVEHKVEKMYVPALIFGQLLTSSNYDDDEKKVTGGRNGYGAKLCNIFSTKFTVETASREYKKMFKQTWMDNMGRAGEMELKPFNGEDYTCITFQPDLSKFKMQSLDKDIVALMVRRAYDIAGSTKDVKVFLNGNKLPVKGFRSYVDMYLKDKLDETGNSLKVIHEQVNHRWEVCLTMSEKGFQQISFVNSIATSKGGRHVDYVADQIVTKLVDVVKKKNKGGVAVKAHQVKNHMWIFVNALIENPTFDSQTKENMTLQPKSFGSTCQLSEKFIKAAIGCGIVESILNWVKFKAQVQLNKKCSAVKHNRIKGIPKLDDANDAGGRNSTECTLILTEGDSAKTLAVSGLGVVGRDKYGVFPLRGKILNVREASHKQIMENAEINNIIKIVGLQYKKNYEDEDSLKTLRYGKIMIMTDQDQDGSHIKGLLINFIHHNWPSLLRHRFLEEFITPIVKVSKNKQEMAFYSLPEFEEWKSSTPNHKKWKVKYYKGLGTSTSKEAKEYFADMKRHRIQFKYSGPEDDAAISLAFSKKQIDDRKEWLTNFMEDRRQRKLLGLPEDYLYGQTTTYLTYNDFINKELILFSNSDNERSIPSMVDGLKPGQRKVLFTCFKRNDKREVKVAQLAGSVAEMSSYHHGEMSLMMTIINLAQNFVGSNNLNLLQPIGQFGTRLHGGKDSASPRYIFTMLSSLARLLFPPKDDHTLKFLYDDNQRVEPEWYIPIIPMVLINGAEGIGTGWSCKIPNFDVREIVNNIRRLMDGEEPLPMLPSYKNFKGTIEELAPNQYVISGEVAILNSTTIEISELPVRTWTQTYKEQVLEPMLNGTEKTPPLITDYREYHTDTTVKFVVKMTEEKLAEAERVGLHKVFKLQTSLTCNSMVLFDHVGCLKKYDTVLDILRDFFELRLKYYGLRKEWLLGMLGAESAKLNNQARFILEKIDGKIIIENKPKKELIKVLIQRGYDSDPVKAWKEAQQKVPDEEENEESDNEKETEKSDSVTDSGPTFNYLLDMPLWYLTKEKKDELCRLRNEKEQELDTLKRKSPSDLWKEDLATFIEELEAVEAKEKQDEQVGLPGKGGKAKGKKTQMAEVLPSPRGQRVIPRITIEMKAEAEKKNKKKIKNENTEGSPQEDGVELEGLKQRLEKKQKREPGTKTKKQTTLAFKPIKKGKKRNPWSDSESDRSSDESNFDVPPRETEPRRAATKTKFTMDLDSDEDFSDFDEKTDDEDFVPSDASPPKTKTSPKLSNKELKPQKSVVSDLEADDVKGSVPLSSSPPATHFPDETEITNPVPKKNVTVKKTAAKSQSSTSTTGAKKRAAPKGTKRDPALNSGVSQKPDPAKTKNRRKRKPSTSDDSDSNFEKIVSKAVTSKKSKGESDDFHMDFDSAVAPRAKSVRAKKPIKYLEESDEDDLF

Turning to `CC[C@@]1(O)C(=O)OCc2c1cc1n(c2=O)Cc2cc3ccccc3nc2-1` [Camptothecin], the IC50 (commonly the concentration that gives 50% inhibition) was 0.02 µM in assay [1] (Homo sapiens, 96 h); below 0.03 µM in [2] (Homo sapiens, all cell lines tested (HeLa, MCF7, HepG2, HT-29, hTERT RPE-1, 267B1, MRC5CV1)); 0.03 µM in assay [3] (Homo sapiens, HT-29, 96 h); 0.02 µM in assay [4] (Homo sapiens, 96 h); 0.03 µM in [5] (Homo sapiens, MCF7, 96 h); below 0.01 µM in [6] (Homo sapiens, 96 h). Further, the IC50 is 0.02 µM in assay [7] (Homo sapiens, HepG2, 96 h) and below 0.01 µM in assay [9] (Homo sapiens, hTERT-RPE1, 96 h). Besides, the “γ-H2A.X induction in control cells (immunoblot)” value in [8] is “strongly induced γ-H2A.X”. In addition, the “Top 1-mediated DNA relaxation” value in assay [10] is recorded as “inhibited DNA relaxation activity of Top 1 in a dose-dependent manner”. For the same molecule, in assay [11], the “p53 and p21 levels” value is reported as “significantly increased”. Moreover, the “phosphorylation-dependent activation of ATM (S1981), ATR (S428), Chk1 (S345), and Chk2 (T68)” value in assay [11] is “activation of ATM, Chk1, and Chk2”. In addition, in assay [11] (nocodazole 200 ng/ml), the “Phosphorylation of Cdk1 at T161” value was “strongly enhanced”. In [11] (nocodazole 200 ng/ml), the “Wee1 and Cdc25C levels” value is “reduction of Cdc25C”. The “cyclin A and cyclin B1 levels” value in assay [11] (nocodazole 200 ng/ml) was “accumulations of cyclin A and cyclin B1”. The “inhibitory phosphorylation of Cdk1 (T14 and Y15)” value in assay [11] (nocodazole 200 ng/ml) is “abundance”.
In the case of `COc1cc([C@@H]2c3cc4c(cc3[C@@H](O[C@@H]3O[C@@H]5CO[C@@H](C)O[C@H]5[C@H](O)[C@H]3O)[C@H]3COC(=O)[C@H]23)OCO4)cc(OC)c1O` [Etoposide], the IC50 was found to be 0.3 µM in [1] (Homo sapiens, 96 h); 10.3 µM in assay [3] (Homo sapiens, HT-29, 96 h); 1.29 µM in assay [4] (Homo sapiens, 96 h); 13.2 µM in [5] (Homo sapiens, MCF7, 96 h); 0.39 µM in assay [6] (Homo sapiens, 96 h); 0.84 µM in [7] (Homo sapiens, HepG2, 96 h). The molecule further had an IC50 in [9] (Homo sapiens, hTERT-RPE1, 96 h) of 0.45 µM. Besides, the “Top 2α-mediated DNA relaxation” value in assay [12] is “inhibited Top 2α activity by reducing the relaxed DNA and increasing nicked-open-circular DNA”.
Take `CCOc1ccc(-c2nc3ccc(-c4nc5ccc(N6CCN(C)CC6)cc5[nH]4)cc3[nH]2)cc1` [Hoechst 33342]: the IC50 in assay [1] turned out to be 4.56 µM; in [3], 0.65 µM; in assay [4] it was 0.35 µM; in assay [5], 0.2 µM; in assay [6], 0.84 µM; in assay [7], 0.22 µM. The IC50 in [9] was determined as 1.01 µM. Besides, the “selectivity of toxicity, cancer versus non-cancer cells” value in assay [2] (cancer (HeLa, MCF7, HepG2, HT-29) vs non-cancer (hTERT RPE-1, 267B1, MRC5CV1)) was “diverse and non-selective against cancer cells”.
With `COC(=O)Nc1nc2ccc(C(=O)c3cccs3)cc2[nH]1` [nocodazole], in assay [11] (nocodazole 200 ng/ml), the “Histone H3 phosphorylation at S10” value is given as “detected only in cells treated with nocodazole”; the “Phosphorylation of Cdk1 at T161” value is given as “strongly enhanced”; the “Wee1 and Cdc25C levels” value is “undetectable levels of Wee1 but activation of Cdc25C”; the “cyclin A and cyclin B1 levels” value was “high level of cyclin B1 and undetectable level of cyclin A”. Also, in assay [11] (nocodazole 200 ng/ml), the “inhibitory phosphorylation of Cdk1 (T14 and Y15)” value was “could not be detected”.
For the molecule ICRF-193, the “Top 2α-mediated DNA relaxation” value in assay [12] was “accumulation of supercoiled DNA”.
